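Assay format: 96-well plates, 48-hour exposure. GI50 marks 50% less growth. Definition used: TGI = concentration required for complete inhibition of growth.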
Assays:
Experiment in all cases: NCI-60 cell line screen, 48 h
[1] = system: 786-0 renal
[2] = system: HCT-15 colon
[3] = system: OVCAR-4 ovarian
[4] = system: RXF 393 renal
[5] = system: SF-295 CNS
[6] = system: UO-31 renal
[7] = system: SF-268 CNS
[8] = system: MDA-MB-435
[9] = system: T-47D breast
[10] = system: BT-549 breast

| Structure (SMILES) | TGI [1] | TGI [2] | TGI [3] | TGI [4] | TGI [5] | TGI [6] | TGI [7] | GI50 [1] | GI50 [2] | GI50 [8] | TGI [8] | GI50 [3] | GI50 [4] | GI50 [7] | GI50 [5] | GI50 [9] | TGI [9] | GI50 [6] | GI50 [10] | TGI [10] |
| --- | --- | --- | --- | --- | --- | --- | --- | --- | --- | --- | --- | --- | --- | --- | --- | --- | --- | --- | --- | --- |
| COC(=O)c1ccc(N=NN(C)CO)cc1 | > 100 µM | > 100 µM | > 100 µM | > 100 µM | > 100 µM | > 100 µM |  |  |  |  |  |  |  |  |  |  |  |  |  |  |
| CS(=O)c1ccc(COP(N)(=O)N(CCCl)CCCl)cc1 (stereo not drawn) | > 100 µM |  | > 100 µM | > 100 µM | > 100 µM | > 100 µM | > 100 µM |  |  |  |  |  |  |  |  |  |  |  |  |  |
| CCOC(=O)CC1=CSC2=NCCN12 | > 100 µM | > 100 µM | > 100 µM | > 100 µM | > 100 µM | > 100 µM | > 100 µM |  |  |  |  |  |  |  |  |  |  |  |  |  |
| C=C(CN1CCc2ccccc2C1)c1ccc(C(=O)Nc2ccc(N)cc2)cc1 | > 100 µM | > 100 µM | > 100 µM | 91.4 µM | 59.4 µM | 30.5 µM | > 100 µM | 22.9 µM | 32.2 µM | 3.11 µM | 11.3 µM | 40.7 µM | 16.9 µM | 23.5 µM | 16.5 µM | 11.1 µM | 41.7 µM | 3.93 µM |  |  |
| O=S1(=O)C[C@@H](O)[C@H](O)CS1 | > 100 µM |  | > 100 µM | > 100 µM | > 100 µM | > 100 µM | > 100 µM |  |  |  |  |  |  |  |  |  |  |  |  |  |
| Cc1c2cc[nH]c(=O)c2cc2c(=O)c3cnccc3[nH]c12 | > 100 µM | > 100 µM | > 100 µM | > 100 µM | > 100 µM | > 100 µM | > 100 µM |  |  |  |  |  |  |  |  |  |  |  |  |  |
| CCOC(=O)C(C)c1cc(C2(C)OCCO2)c(C)o1 (stereo not drawn) | > 100 µM | > 100 µM | > 100 µM | > 100 µM | > 100 µM | > 100 µM | > 100 µM |  |  |  |  |  |  |  |  |  |  |  |  |  |
| COc1nc(C)cc2c(=O)n(-c3ccccc3)n(CCCN3CCN(c4ccc(Cl)cc4)CC3)c(=O)c12 | > 50 µM | > 50 µM | > 50 µM |  | > 50 µM | > 50 µM | > 50 µM | 31.2 µM | > 50 µM | > 50 µM | > 50 µM | 17.6 µM |  | 37.7 µM | 29.2 µM | > 50 µM | > 50 µM | 31.9 µM |  |  |
| CC(C(=O)Oc1ccc2ccccc2c1-c1c(O)ccc2ccccc12)c1ccccc1 (stereo not drawn) | 29.3 µM | 27.2 µM | 23.5 µM | 22.9 µM | 25.6 µM | 6.37 µM |  |  |  |  |  |  |  |  |  |  |  |  |  |  |
| COC(=O)c1c(CC#N)cccc1CC#N | > 100 µM | > 100 µM | > 100 µM | > 100 µM | > 100 µM | > 100 µM | > 100 µM |  |  |  |  |  |  |  |  |  |  |  |  |  |
| ON=C1CCC(c2ccccc2)CC1 (stereo not drawn) | > 100 µM | > 100 µM | > 100 µM | > 100 µM | > 100 µM | > 100 µM | > 100 µM |  |  |  |  |  |  |  |  |  |  |  |  |  |
| COC(=O)C(Nc1ccc(OC)cc1)c1ccccc1 (stereo not drawn) | > 100 µM | > 100 µM |  |  | > 100 µM | > 100 µM | > 100 µM |  |  |  | > 100 µM |  |  |  |  |  | > 100 µM |  |  |  |
| C/C=C(\C)C(=O)O[C@H]1C=CC(=O)O[C@H]1CNC(=O)[C@H](C)O | 26.1 µM | 32 µM | 36.1 µM | 40.1 µM | > 100 µM | 33.4 µM | 35.7 µM | 13.3 µM | 15.6 µM | 20.1 µM | 44.7 µM | 17.3 µM | 19.3 µM | 16.7 µM | 32.6 µM | 20 µM | 73.9 µM | 16.9 µM |  |  |
| CCOC(=O)c1ccc(N2C(=O)/C(=C\OC)c3ccccc3C2=O)cc1 | > 100 µM | > 100 µM | > 100 µM | 61.3 µM | > 100 µM | 62.8 µM | > 100 µM |  |  |  |  |  |  |  |  |  |  |  |  |  |
| Nc1c(-c2nc3ccccc3[nH]2)sc(=S)n1-c1ccccc1 | > 100 µM | > 100 µM | > 100 µM | > 100 µM | > 100 µM | > 100 µM | > 100 µM |  |  |  |  |  |  |  |  |  |  |  |  |  |
| O=C(Oc1ccc(CCl)cc1)c1ccccc1 | 0.286 µM | 0.393 µM | 0.313 µM | 0.332 µM | 0.543 µM | 0.319 µM | 0.326 µM | 0.125 µM | 0.181 µM | 0.155 µM | 0.299 µM | 0.159 µM | 0.174 µM | 0.17 µM | 0.185 µM |  |  | 0.173 µM | 0.154 µM | 0.295 µM |
| O=C([CH-]C(=O)c1ccccc1)c1ccccc1.O=C([CH-]C(=O)c1ccccc1)c1ccccc1.[Nd+3].[OH-].[OH3+] | 33.7 µM | 34.1 µM | > 100 µM |  | 22.8 µM | 12.4 µM | 34.9 µM | 7.79 µM | 8.5 µM |  |  | 16.4 µM |  | 6.51 µM | 3.95 µM |  |  | 3.11 µM |  |  |

| Structure (SMILES) | TGI [1] | TGI [2] | TGI [3] | TGI [4] | TGI [5] | TGI [6] | TGI [7] | GI50 [1] | GI50 [2] | GI50 [8] | TGI [8] | GI50 [3] | GI50 [4] | GI50 [7] | GI50 [5] | GI50 [9] | TGI [9] | GI50 [6] | GI50 [10] | TGI [10] |
| --- | --- | --- | --- | --- | --- | --- | --- | --- | --- | --- | --- | --- | --- | --- | --- | --- | --- | --- | --- | --- |
| COc1ccc(/C=C2/C[N+](C)(C)C/C(=C/c3ccc(OC)cc3)C2=O)cc1 | > 100 µM | > 100 µM | > 88.9 µM | > 100 µM | > 100 µM | > 100 µM | > 94.4 µM |  |  |  |  |  |  |  |  |  |  |  |  |  |
| N.N.NC(CS)C(=O)[O-].NC(CS)C(=O)[O-].[Pt+4] (stereo not drawn) | > 50 µM | > 50 µM | > 50 µM | > 50 µM | > 50 µM | > 5 µM | > 50 µM | > 50 µM | > 50 µM |  |  | > 50 µM | > 50 µM | > 50 µM | > 50 µM |  |  | > 5 µM |  |  |
| O=C(c1ccccc1)c1c(C(=O)c2ccccc2)c(-c2ccccc2)c2c(-c3ccccc3)sc(-c3ccccc3)c2c1-c1ccccc1 | > 100 µM | > 100 µM | > 100 µM | > 100 µM | > 100 µM | > 100 µM | > 100 µM |  |  |  |  |  |  |  |  |  |  |  |  |  |
| CCOC(=O)C1C(=O)c2ccccc2CN1Cc1ccccc1 (stereo not drawn) | > 100 µM | > 100 µM | > 100 µM |  | > 100 µM | > 100 µM | > 100 µM |  |  |  |  |  |  |  |  |  |  |  |  |  |
| O=C(O)c1cc2c(cn1)[nH]c1ccccc12 | > 100 µM | > 100 µM | > 100 µM | > 100 µM | > 100 µM | > 100 µM | > 100 µM |  |  |  |  |  |  |  |  |  |  |  |  |  |
| CC(=O)OCC1OC(n2c(=O)n(-c3ccccc3)c(=O)c3ccccc32)C(OC(C)=O)C(OC(C)=O)C1OC(C)=O (stereo not drawn) | > 100 µM | > 100 µM | > 100 µM | > 100 µM | > 100 µM | > 100 µM | > 100 µM |  |  |  |  |  |  |  |  |  |  |  |  |  |
| CN(c1ccccc1)C(c1ccccc1)C(O)c1ccccc1 (stereo not drawn) | 33.8 µM | 40.3 µM | 34.5 µM |  | 32 µM | 41.9 µM | 42.1 µM |  |  |  |  |  |  |  |  |  |  |  |  |  |
| c1ccc(N=C2c3ccccc3C3=NCCCN32)cc1 | > 100 µM | > 100 µM | > 100 µM | > 100 µM | > 100 µM | > 100 µM | > 100 µM |  |  |  |  |  |  |  |  |  |  |  |  |  |
| COC(=O)C1=C(O)C(O)=C(C(=O)OC)C1 | > 100 µM | > 100 µM | > 100 µM | > 100 µM | > 100 µM | > 100 µM | > 100 µM |  |  |  |  |  |  |  |  |  |  |  |  |  |
| O=[N+]([O-])C1C2C=CC(C2)[C@H]1c1ccccc1Cl (stereo partly drawn) | > 100 µM | > 100 µM | > 10 µM | > 100 µM | > 100 µM | 97.7 µM | > 100 µM |  |  |  |  |  |  |  |  |  |  |  |  |  |
| CC[N+](CC)(CC)CCCn1c2c(c3ccccc3c1=O)C(=O)c1ccccc1-2 | 32 µM | > 100 µM | > 100 µM | 17.6 µM | 57.9 µM |  | 24.4 µM | 7.35 µM | 4.97 µM | 18.3 µM | 62.6 µM | 55.3 µM | 0.056 µM | 3.42 µM | 7.38 µM | 98.1 µM | > 100 µM |  |  |  |
| COc1ccc2ccc([Se]c3ccc4ccc(OC)cc4c3)cc2c1 | > 100 µM | > 100 µM | 46.6 µM | > 100 µM | > 100 µM | 95.8 µM | > 100 µM |  |  |  |  |  |  |  |  |  |  |  |  |  |
| O=C(Nc1ccc(Cl)cc1)c1cc2ccccc2cc1O | > 100 µM | > 100 µM | > 100 µM | > 100 µM | > 100 µM | > 100 µM | > 100 µM | 3.81 µM | 3.1 µM | 3.84 µM | > 100 µM | 4.41 µM | 7.19 µM | 3.68 µM | 2.96 µM | 1.11 µM | 9.49 µM | 2.03 µM |  |  |
| CC(=O)/C=C/c1ccc(C2CC(C)=Nc3c(ccc4c3C(=O)c3ccccc3C4=O)N2)cc1 (stereo not drawn) | > 100 µM | > 100 µM | > 100 µM | > 100 µM | > 100 µM | > 100 µM | > 100 µM |  |  |  |  |  |  |  |  |  |  |  |  |  |
| O=C1C(=O)N(c2ccc(Cl)c(Cl)c2)C(=O)C(=O)C1c1nc2ccccc2o1 | > 100 µM | > 100 µM | > 100 µM |  | > 100 µM | > 100 µM | > 100 µM |  |  |  |  |  |  |  |  |  |  |  |  |  |
| O=C(O)C12C3CCCC1C2CC3 (stereo not drawn) | > 100 µM | > 100 µM |  | > 100 µM | > 100 µM | > 100 µM | > 100 µM |  |  |  |  |  |  |  |  |  |  |  |  |  |
| O=C1OC2(c3ccccc3Oc3ccccc32)c2ccccc21 | > 100 µM | > 100 µM | > 100 µM |  | > 100 µM | > 100 µM | > 100 µM |  |  |  |  |  |  |  |  |  |  |  |  |  |

From PubChem BioAssay (NCI)
